Assays:
brain total Aβ40 = brain total Aβ40 in Tg2576 mice after intraperitoneal injection; assay type: in vivo; conditions: 3 mg/kg intraperitoneal, 1 injection per day for 9 days, 12- to 13-month old Tg2576 mice; p value greater than 0.05
Experimental: FIG. 18. CNS-2 reduces brain total Aβ40 in Tg2576 mice. CNS-2 was dissolved in 0.9% normal saline solution with 1.9% DMSO. 12 month old Tg2576 APPsw transgenic mice were treated with 3 mg/kg CNS-2 via intraperitoneal injection at an injection volume of 20 μl per gram. 8 mice per group were treated for 9 days, 1 injection per day. Mice were sacrificed on day 9, 5 hours after the final injection. One hemisphere from each mouse was homogenized, and the homogenate was processed for formic acid extraction of plaque Aβ. After formic acid extraction, total Aβ40 was measured via ELISA kit (BioSource) and normalized to total protein.
A total of 16 mice were treated with either DMSO (n=8) or 3 mg/kg CNS-2 (n=8). The dosage was selected arbitrarily based on compound solubility in 0.9% normal saline. CNS-2 was dissolved in 0.9% normal saline solution with 1.9% final DMSO concentration. 12- to 13-month old Tg2576 mice were treated with DMSO or CNS-2 via intraperitoneal injection for 9 days (1 injection per day) at an injection volume of 20 μl per gram of weight. Mouse weight was monitored daily, and the total injection volume adjusted accordingly over the course of the 9-day treatment. […] Mice were sacrificed on day 9, 5 hours after the final injection. […] Total Aβ40 was determined by Aβ ELISA kit and normalized to total protein (FIG. 18).

[1] = weight and overt toxicity in treated Tg2576 mice; assay type: in vivo; conditions: 3 mg/kg intraperitoneal, 9 days
Experimental: A total of 16 mice were treated with either DMSO (n=8) or 3 mg/kg CNS-2 (n=8). The dosage was selected arbitrarily based on compound solubility in 0.9% normal saline. CNS-2 was dissolved in 0.9% normal saline solution with 1.9% final DMSO concentration. 12- to 13-month old Tg2576 mice were treated with DMSO or CNS-2 via intraperitoneal injection for 9 days (1 injection per day) at an injection volume of 20 μl per gram of weight. Mouse weight was monitored daily, and the total injection volume adjusted accordingly over the course of the 9-day treatment. […] Mice were sacrificed on day 9, 5 hours after the final injection. One hemibrain from each mouse was homogenized and processed for formic acid extraction of plaque Aβ. Total Aβ40 was determined by Aβ ELISA kit and normalized to total protein (FIG. 18).

[2] = tested on: sAPPβ in Lenti-APPsw infected primary cortical neurons; assay: sAPPβ IP-Western in Lenti-APPsw infected primary cortical neurons; assay type: cell-based, mouse; conditions: 20 μM, 24 hours, normalized to APP
Experimental: FIG. 15A-D. LDN-0057228 reduces Aβ40 and sAPPβ in primary neurons. DIV-14 primary cortical neurons from wild-type mice were incubated for 24 hours with primary culture media containing lentivirus harboring APPsw. After infection, neurons were incubated for 48 hours with 1:1 fresh to conditioned media to allow for APP expression. Neurons were then treated with LDN-0057228 at 20 μM for 24 hours in triplicate. A) Media was collected for Aβ40 ELISA. Raw Aβ40 values were normalized to APP to control for variations in lentiviral infection efficiency. B) Cell lysates were probed with 6E10 antibody to visualize the transduced full-length APP. C) sAPPβ from neuron culture media was immunoprecipitated with sβsw antibody and probed with LN27. D) Quantification of sAPPβ, normalized to APP. Data in A) and […]) represent mean+s.d. of 3 wells. Bands from B) and C) were quantified using ImageJ software.
Using this experimental paradigm, LDN-0057228 was tested at 20 μM concentration to confirm the sAPPβ- and Aβ-lowering activity of the compound (FIG. 15). The protocol was modified slightly to allow for 24-hour compound treatment. […]
LDN-0057228 caused a 75% reduction in Aβ40 levels (p<0.05) in primary neurons (FIG. 15A). […] The sAPPβ bands were quantified using ImageJ software and normalized to APP, showing a 40% reduction in sAPPβ (p<0.01) for the treated neurons (FIG. 15D).

Structure (SMILES) | reduction of brain total Aβ40 (brain total Aβ40) [%] | changes in weight and overt signs of toxicity [1] | reduction in sAPPβ [2] [%]
O=C(CCc1ccccc1)NC[C@@H]1CCCN1CCOC(c1ccc(F)cc1)c1ccc(F)cc1 [CNS-2] | 30 | Neither the treated nor control groups exhibited any significant changes in weight or any overt signs of toxicity | –
Fc1ccc(C(OCCN2CCC[C@H]2CNCCc2ccccc2)c2ccc(F)cc2)cc1 [LDN-0057228] | – | – | 40

Reference: patent publication US20110071124A1, “Compounds that Inhibit Production of sAPPB and AB and Uses Thereof” (The Trustees of Columbia University in the City of New York, priority 2008, published 2011)
